From patent US20120077779A1, “Inhibitors of Fibroblast Activation Protein Alpha” (Trustees of Tufts College, priority 2005, published 2012)

Each compound was assayed against T1, FAP (Homo sapiens, UniProt Q12884) (assay: Enzymatic activity of purified FAP, chromogenic substrate H-Ala-Pro-pNA). Details: pH 7.4, 25° C., 10 min pre-incubation with enzyme.
T1 sequence (Q12884 1-760): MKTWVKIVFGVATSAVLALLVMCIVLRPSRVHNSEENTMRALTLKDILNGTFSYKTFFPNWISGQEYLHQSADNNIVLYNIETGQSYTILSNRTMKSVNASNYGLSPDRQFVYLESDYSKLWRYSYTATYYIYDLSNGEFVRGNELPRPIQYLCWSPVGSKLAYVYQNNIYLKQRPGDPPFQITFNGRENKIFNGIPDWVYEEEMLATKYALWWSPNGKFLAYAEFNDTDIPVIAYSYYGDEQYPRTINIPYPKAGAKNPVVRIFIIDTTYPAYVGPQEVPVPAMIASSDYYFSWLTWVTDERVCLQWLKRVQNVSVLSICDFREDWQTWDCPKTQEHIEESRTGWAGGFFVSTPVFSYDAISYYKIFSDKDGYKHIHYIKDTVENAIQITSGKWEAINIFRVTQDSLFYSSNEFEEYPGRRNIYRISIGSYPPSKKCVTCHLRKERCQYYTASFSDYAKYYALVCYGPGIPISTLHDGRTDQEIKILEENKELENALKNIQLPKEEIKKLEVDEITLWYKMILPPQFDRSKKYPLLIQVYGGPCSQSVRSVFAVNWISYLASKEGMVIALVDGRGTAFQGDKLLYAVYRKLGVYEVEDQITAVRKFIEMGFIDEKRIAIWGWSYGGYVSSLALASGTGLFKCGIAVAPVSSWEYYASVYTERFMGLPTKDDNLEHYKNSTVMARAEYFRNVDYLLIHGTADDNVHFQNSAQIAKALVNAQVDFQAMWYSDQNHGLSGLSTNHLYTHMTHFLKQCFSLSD
Format: biochemical
Protocol: The enzymatic activity of purified FAP was measured at 25° C. on a Molecular Devices SPECTRAmax 340PC384 microtiter plate reader by monitoring the absorbance of H-Ala-Pro-pNA (Bachem) as the chromogenic substrate at 410 nm. […] Assays and their corresponding measurements were performed in duplicate. […] Inhibitor stock solutions (1 mM) were prepared in HCl solution (pH 2.0), and stored at −20° C. Stock solutions were diluted with 20 mM TRIS-HCl, KCl (20 mM) buffer at pH 7.4 immediately preceding the experiment according to the protocol.
N#C[C@@H]1CCCN1C(=O)CNC(=O)c1ccccc1 [Compound 30] showed an IC50 of 2.2 µM. Compound CC[C@H](NC(=O)CNC(=O)c1cccc2ccccc12)B(O)O [Compound 34] has an IC50 of 9 µM. O=C(NCC(=O)N1CCSC1)c1ccccc1 [Compound 31] showed an IC50 of 14 µM. CC(C)[C@H](NC(=O)c1ccccc1)C(=O)N1CCC[C@H]1B(O)O [Compound 32] was tested, and the IC50 was 30 µM. CC(C)NCC(=O)N1CCCC1B(O)O (stereo not shown) [Compound 15] showed an IC50 of 0.99 µM. Work on C[C@H](NC(=O)CNC(=O)c1cccc2ccccc12)B(O)O [Compound 33] yielded an IC50 of 8.2 µM.

Same assay, conditions: pH 7.4, 25° C., 10 min pre-incubation; result in words
CNCC(=O)N1CCCC1B(O)O (stereo not shown) [Compound 12] was tested, and the “IC50 FAP (pH 7.4)” value was “no inhib”. With CC(=O)N[C@H](C(=O)N[C@@H](C)B(O)O)C(C)C [Compound 35] the “IC50 FAP (pH 7.4)” value was “no inhib”. With CC[C@H](NC(=O)[C@@H](NC(C)=O)C(C)C)B(O)O [Compound 36] the “IC50 FAP (pH 7.4)” value was “no inhib”.

The compounds below were run against DPP IV (Homo sapiens, UniProt P27487) (assay: DPP IV inhibition (Table 1)). Details: pH 8.0.
DPP IV, sequence (P27487 whole entry, species assumed): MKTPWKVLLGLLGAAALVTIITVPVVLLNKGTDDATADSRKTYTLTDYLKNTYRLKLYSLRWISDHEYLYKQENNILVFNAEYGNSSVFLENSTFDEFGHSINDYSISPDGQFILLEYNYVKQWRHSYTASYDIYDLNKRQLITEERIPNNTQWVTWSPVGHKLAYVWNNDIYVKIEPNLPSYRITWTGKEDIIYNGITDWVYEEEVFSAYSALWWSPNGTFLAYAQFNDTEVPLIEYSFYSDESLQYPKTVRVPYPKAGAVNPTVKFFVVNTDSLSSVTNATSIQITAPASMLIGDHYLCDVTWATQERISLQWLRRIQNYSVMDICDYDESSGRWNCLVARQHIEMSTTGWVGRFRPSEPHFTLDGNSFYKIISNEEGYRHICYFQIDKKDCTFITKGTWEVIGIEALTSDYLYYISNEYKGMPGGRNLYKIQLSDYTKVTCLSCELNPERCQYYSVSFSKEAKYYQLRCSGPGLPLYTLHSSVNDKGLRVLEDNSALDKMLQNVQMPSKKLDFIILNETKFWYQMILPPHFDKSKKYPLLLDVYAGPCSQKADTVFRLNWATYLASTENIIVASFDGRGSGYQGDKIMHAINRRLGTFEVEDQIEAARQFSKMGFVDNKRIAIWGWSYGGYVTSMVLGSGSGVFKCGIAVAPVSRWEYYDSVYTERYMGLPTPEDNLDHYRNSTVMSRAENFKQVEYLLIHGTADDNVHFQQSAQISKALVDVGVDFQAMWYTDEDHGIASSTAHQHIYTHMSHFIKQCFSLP
Format: biochemical
CNCC(=O)N1CCCC1B(O)O (stereo not shown) [Compound 12] was tested, and the IC50 was 560 µM. Work on NCC(=O)N1CCC[C@H]1B(O)O [Compound 6] yielded an IC50 of 6.9 µM. Compound CCNCC(=O)N1CCCC1B(O)O (stereo not shown) [Compound 13] has an IC50 of 46 µM. CC(C)NCC(=O)N1CCCC1B(O)O (stereo not shown) [Compound 15] was tested, and the IC50 was 0.9 µM.
